From patent US20030017166A1, “Combination preparation for the therapy of immunological diseases” (priority 2001, published 2003)

Key:
[1] = tested on: allergic rhinitis/conjunctivitis against hazelnut pollen and grass pollen; assay: Allergic rhinitis/conjunctivitis on exposure to hazelnut pollen or grass pollen in patients; format: in vivo, human
Source text: The effect of the combination therapy on type I allergy (allergic conjunctivitis and rhinitis) was investigated since type I allergy is an antibody-induced disease which is regulated by T cells. […] In the allergy investigations, contact with the antigen took place aerogenically, by exposure to hazelnut pollen or the pollen of grasses.
First of all, the test subjects were exposed to the allergen pollens in order to verify the existence of the allergy.
After a month, the two test subjects were given a loading dose of in each case 100 mg of leflunomide on 3 consecutive days. The test subjects were then given a constant daily dose of 20 mg of leflunomide.
On the 4th day of the leflunomide administration, the test subjects were exposed to one of the two allergens.
After these 30 days, the leflunomide was eliminated from the body in an accelerated manner by means of the 3× daily administration of cholestyramine over a period of 10 days. During this accelerated elimination, the daily exposure to antigen was continued.
In addition, the test subjects were able to use vasoconstrictors, such as Otriven® nasal drops and Yxin® eyedrops, to alleviate acute symptoms.
Neomycin sulfate was used, at a concentration of 50 mg/ml in physiological sodium chloride solution, as an immunomodulatory substance, as eyedrops and as a metered nasal spray. During the allergen exposure (season of airborne pollen), the neomycin solution was initially administered every 3 hours during the day. As soon as symptoms of an allergic reaction, such as severe itching, tears, flow of nasal secretion or sneezing impulses, occurred, this inflammatory reaction was suppressed, within the first 5 days, by using the dexametasone eyedrops, the dexamethasone nasal spray, xylometazoline nasal drops and Yxin® eyedrops. The steroids and the vasoconstrictors were administered as required.

[2] = tested on: susceptibility to infection; details: clinical investigations and investigations on experimental animals; cited from earlier work
[3] = tested on: contact allergy to nickel and cobalt (contact dermatitis); assay: Contact dermatitis induced with nickel or cobalt vaseline preparations in volunteer test subjects; format: in vivo, human
Source text: Contact dermatitis was selected as a model disease for the large number of T cell-mediated immune reactions (generally: overshooting damaging immune reactions) since it can be induced by applying the contact allergens to the skin and the severity of the inflammatory reaction and immune reaction can readily be assessed by observing the skin symptoms.
The contact allergies were induced by applying preparations in white vaseline. These vaseline preparations contained either 1% cobaltII chloride or 5% nickelII sulfate.
For inducing the contact dermatitis, the vaseline preparation was applied once daily to an area of approx. 2×2 cm^2, usually on the upper arm or the lower arm.
The contact dermatitis was subdivided into the following levels in accordance with the extent of the inflammatory reaction:
Level 1: very minor inflammatory reaction, slight reddening of the skin;
Level 2: minor inflammatory reaction, reddening of the skin and possible itching;
Level 3: slight inflammatory reaction, reddening and edematous swelling of the skin, itching;
Level 4: moderate inflammatory reaction, reddening, edematous swelling, vesicles or blister formation, itching;
Level 5: pronounced inflammatory reaction: reddening, edematous swelling, vesicles and blister formation, weeping erosions and possible incrustation.
The severity of the inflammatory reaction which occurred was controlled by administering Ultralan® tablets systemically. When the antigen-specific regulatory immune response was induced, the inflammatory reaction was kept in the range of levels 1 and 2 by administering fluocortolone (Ultralan®). If a contact dermatitis of level 3 or higher developed despite the administration of Ultralan®, the dose of Ultralan® was then increased up to the next dosage level. If required, the dose was increased once again 2 days after the last increase in the dose.
As soon as it was no longer possible to observe any symptoms of the contact dermatitis at a given dosage level of Ultralan®, the dose was reduced on the following day and subsequently maintained once again until all the symptoms of the contact allergy had disappeared, after which the dose of Ultralan was reduced once again until, finally, it was no longer necessary to administer any Ultralan®.
As a rule, the following gradations in the daily doses of Ultralan® were employed: 20 mg, 15 mg, 10 mg, 7.5 mg, 5 mg, 2.5 mg and 0 mg.
An appropriate blood level of leflunomide was achieved by means of a loading dose of 100 mg on the first three consecutive days of the leflunomide therapy; after that, the leflunomide dose was reduced to 20 mg per day. Unless otherwise stated, this dose of leflunomide was maintained for up to 30 days after the time point at which the administration of flucortolone was terminated.
Subsequently, the leflunomide was eliminated at an accelerated rate from the body by means of administering 3× daily doses of 8 grams of cholestyramine over a period of 10 days.
As described above, the antigen is applied to the skin once a day using a preparation prepared from white vaseline. As a rule, the antigen was administered up to the tenth day after the last administration of leflunomide.
In the investigations into the development of a regulatory immune response in connection with the contact dermatitis, a fresh exposure to the antigen against which a regulatory immune response had been developed was carried out no earlier than 1 month after the last contact with the antigen.

rheumatoid arthritis = details: monotherapy; cited from earlier work

## C[C@@H]1C[C@H]2[C@@H]3CCC4=CC(=O)C=C[C@]4(C)[C@@]3(F)[C@@H](O)C[C@]2(C)[C@@]1(O)C(=O)CO [dexamethasone]
[1]; Investigation 5.1, under neomycin solution 50 mg/ml every 3 hours, start of first 5 days
  requirement for dexamethasone administrations, initial average: 4 administrations per day
[1]; Investigation 5.1, under neomycin solution, within the first 5 days
  requirement for dexamethasone administrations, after decrease: 2 administrations per day

## Cc1oncc1C(=O)Nc1ccc(C(F)(F)F)cc1 [leflunomide, N-(4-trifluoromethylphenyl)-5-methylisoxazole-4-carboxamide]
[1]; Investigation 4.1, 2 test subjects, 4th day of leflunomide, before steroid
  reaction on first allergen exposure under leflunomide: reacted immediately with allergic symptoms
[1]; Investigation 4.1, 30 days plus 10 days cholestyramine, daily antigen
  allergy symptoms during steroid-free leflunomide plus antigen phase and accelerated elimination: no symptoms of an allergy appeared
[1]; Investigation 4.1, after one month break, daily exposure over 2 weeks
  allergic symptoms on re-exposure to the allergen given during leflunomide: did not develop any symptoms of an allergic reaction
[1]; Investigation 4.2, grass pollen dust 1x daily, within 2 days
  allergy symptoms on exposure to the antigen not given during leflunomide: developed symptoms of an allergy
[1]; Investigation 4.3, 3rd and 4th day, only leflunomide-associated antigen administered
  allergy symptoms to the leflunomide-associated antigen under inflammatory conditions: Symptoms of an allergy developed
[1]; Investigation 4.4, after a further 4 weeks, 2 weeks of daily exposure
  allergy symptoms on re-exposure to the leflunomide-associated antigen: No symptoms of an allergy developed
[2]
  susceptibility to infection: does not increase susceptibility to infection
[3]; Investigation 1.1, 4 weeks after end of treatment cycle, 2 weeks provocation
  symptoms of contact allergy on provocation with the antigen given during leflunomide: did not appear in any of the test subjects
[3]; Investigation 1.1, after steroids completely discontinued
  symptoms of the contact allergy during 30 days of daily leflunomide and antigen: not possible to observe any symptoms of the contact allergy
[3]; Investigation 1.1, cholestyramine over 10 days, continued allergen exposure
  symptoms of the contact allergy during accelerated elimination of leflunomide: not observed in any of the test subjects
[3]; Investigation 1.1, leflunomide 100 mg x 3 days then 20 mg/day, allergen from 4th day, within 2 days, before steroids
  level of skin reaction (contact dermatitis levels 1-5): 3 to 4 level
[3]; Investigation 1.2, 4 weeks later, within 2 days
  level of contact dermatitis on exposure to the antigen not given during leflunomide: 3 to 4 level
[3]; Investigation 1.3, allergen switched on 3rd day
  symptoms of contact allergy to the leflunomide-associated allergen applied on still inflamed skin: persisted as long as the contact allergen was being administered
[3]; Investigation 1.4, after 4 weeks break, exposure period of 2 weeks
  contact allergy on re-exposure to the leflunomide-associated antigen after inflammation regressed: did not react with any contact allergy
[3]; Investigation 1.5, period of 2 weeks
  symptoms of contact allergy after switch to the leflunomide-associated antigen under inflammation: persisted
[3]; Investigation 1.5, within 2 days
  level of contact allergy on exposure to the antigen not given during leflunomide: 3 to 4 level
[3]; Investigation 1.6, 4 weeks later, first 2 weeks of exposure
  symptoms of contact allergy on exposure to the leflunomide-associated allergen: No symptoms of a contact allergy were observed
[3]; Investigation 1.6, continued allergen exposure
  time to disappearance of inflammatory reactions after UV-A on the side with contact allergen: ≥ 7 days
[3]; Investigation 1.6, identical irradiation of both arms
  symptoms of inflammation after UV-A irradiation on arm with contact allergen versus arm without: somewhat stronger
[3]; Investigation 3.1, shortened 2-week phase, days following first reddening
  course of contact allergy on allergen exposure: increasing symptoms of a contact allergy
[3]; Investigation 3.1, steroid-free leflunomide plus allergen phase shortened from 30 days to 2 weeks, exposure 4 weeks after discontinuing leflunomide
  onset of slight reddening after beginning allergen exposure: 3 to 4 days
[3]; Investigation 3.3, leflunomide and contact allergen continued for 20 days, then accelerated elimination
  regulatory immune response 4 weeks after treatment: a stable antigen-specific regulatory immune response had developed
Rheumatoid arthritis
  effect on rheumatoid arthritis when administered on its own: able to reduce the progression of rheumatoid arthritis but is not able to cure the disease

## Neomycin sulfate
[1]; Investigation 5.1, 2 test subjects, direct exposure to hazelnut pollen twice daily, no dexamethasone or cromoglycic acid
  allergy symptoms on intensified antigen exposure during neomycin: no allergy symptoms appeared in either of the test subjects
[1]; Investigation 5.1, after a month break, daily exposure for 2 weeks
  allergy symptoms on re-exposure to the allergen given during neomycin: did not exhibit any allergy symptoms
[1]; Investigation 5.2, dust of grass pollens 1x daily, within 2 days
  allergy symptoms on exposure to the antigen not given during neomycin: developed symptoms of an allergy
[1]; Investigation 5.3, 3rd and 4th day, only neomycin-associated antigen administered
  allergy symptoms to the neomycin-associated antigen under inflammatory conditions: Symptoms of an antigy developed
[1]; Investigation 5.4, after another break of 4 weeks, 2 weeks of daily exposure
  allergy symptoms on re-exposure to the neomycin-associated antigen: had not developed any allergy symptoms

## C[C@@H]1C[C@H]2[C@@H]3C[C@H](F)C4=CC(=O)C=C[C@]4(C)[C@H]3[C@@H](O)C[C@]2(C)[C@H]1C(=O)CO [Ultralan®, fluocortolone]
[1]; Investigation 4.1, 10 mg Ultralan, Otriven nasal drops, Yxin eyedrops, with leflunomide
  allergic symptoms immediately after antigen exposure under Ultralan and vasoconstrictors: only slight symptoms of an allergic reaction
[1]; Investigation 4.1, constant treatment with Ultralan and leflunomide
  time to complete disappearance of allergy symptoms directly after antigen exposure: ≤ 4 days
[3]; Investigation 1.1, 4 test subjects, Ultralan alone, no leflunomide, continued allergen exposure
  contact dermatitis while Ultralan was being reduced stepwise: reappeared
[3]; Investigation 1.1, Ultralan added to leflunomide and allergen, allergy adjusted to grade 1-2
  time to complete disappearance of contact allergy symptoms: 3 to 5 days
[3]; Investigation 1.5, allergen continued for further 2 weeks after Ultralan discontinued
  symptoms of contact allergy after brief Ultralan suppression and discontinuation: no symptoms of any contact allergy appeared
[3]; Investigation 2.1, 2 test subjects, fully suppressive Ultralan dose for 4 weeks with leflunomide and allergen, one day after discontinuation
  symptoms of contact allergy after abrupt Ultralan discontinuation: Massive symptoms of the contact allergy developed
[3]; Investigation 3.2, single administration of 5 mg Ultralan with simultaneous leflunomide
  time to disappearance of symptoms: one
[3]; systemic tablets, as a rule
  dose of Ultralan sufficient to restrict the symptoms of the contact allergy to levels 1 to 2: at most 10 mg/day
